Test results as given in ChEMBL document CHEMBL5154882, “Discovery of 4-Hydroxyquinazoline Derivatives as Small Molecular BET/PARP1 Inhibitors That Induce Defective Homologous Recombination and Lead to Synthetic Lethality for Triple-Negative Breast Cancer Therapy” (J Med Chem, 2022).
pIC50: −log10 of the molar value. Active and inactive are the calls of the source. The rule behind the calls is not given here.

Tests used:
[1] = system: MDA-MB-231; assay: Induction of DNA damage in human MDA-MB-231 cells assessed as increase in tail DNA measured at 3 uM after 3 days by comet assay; type: functional, cell-based; conditions: time 3.0 day
[2] = system: MDA-MB-468; assay: Induction of DNA damage in human MDA-MB-468 cells assessed as up-regulation of gammaH2AX expression level at 3 uM by DAPI staining based immunofluorescence assay; type: functional, cell-based
[3] = system: MDA-MB-468; assay: Induction of apoptosis in human MDA-MB-468 cells assessed as early apoptotic cells at 1 uM incubated for 72 hrs in presence of olaparib by annexin V/propidium iodide staining-based flow cytometry analysis (reference value: 4.07%); type: functional
[4] = system: MDA-MB-468; assay: Induction of DNA damage in human MDA-MB-468 cells assessed as up-regulation of gammaH2AX expression level at 1 uM incubated for 60 mins by DAPI staining based immunofluorescence assay; type: functional, cell-based
[5] = system: MDA-MB-231; assay: Induction of DNA damage in human MDA-MB-231 cells assessed as increase in tail DNA at 1 uM measured after 3 days in presence of olaparib by comet assay; type: functional, cell-based; conditions: time 3.0 day
[6] = system: MDA-MB-468; assay: Cell cycle arrest in human MDA-MB-468 cells assessed as accumulation at G0/G1 phase incubated for 72 hrs in presence of olaparib by propidium iodide staining-based flow cytometry analysis (reference value: 61.4%); type: functional
[7] = system: MDA-MB-468; assay: Cell cycle arrest in human MDA-MB-468 cells assessed as accumulation at S phase incubated for 72 hrs in presence of olaparib by propidium iodide staining-based flow cytometry analysis (Rvb=16.1%); type: functional
[8] = system: MDA-MB-231; assay: Induction of DNA damage in human MDA-MB-231 cells assessed as increase in tail DNA measured at 1 uM after 3 days by comet assay; type: functional, cell-based; conditions: time 3.0 day
[9] = system: MDA-MB-468; assay: Induction of DNA damage in human MDA-MB-468 cells assessed as up-regulation of gammaH2AX expression level at 1 uM in presence of olaparib by DAPI staining based immunofluorescence assay; type: functional, cell-based
[10] = system: MDA-MB-468; assay: Induction of apoptosis in human MDA-MB-468 cells assessed as up-regulation of cleaved caspase 3 protein level incubated for 72 hrs in presence of olaparib by Western blot analysis; type: functional, cell-based
[11] = system: MDA-MB-468; assay: Induction of apoptosis in human MDA-MB-468 cells assessed as up-regulation of Bax protein level at incubated for 72 hrs in presence of olaparib by Western blot analysis; type: functional, cell-based
[12] = system: MDA-MB-468; assay: Cell cycle arrest in human MDA-MB-468 cells assessed as accumulation at S phase incubated for 72 hrs in presence of olaparib by propidium iodide staining-based flow cytometry analysis (reference value: 21.1%); type: functional
[13] = system: MDA-MB-468; assay: Induction of apoptosis in human MDA-MB-468 cells assessed as downregulation of Bcl-2 protein level incubated for 72 hrs in presence of olaparib by Western blot analysis; type: functional, cell-based
[14] = system: MDA-MB-468; assay: Induction of apoptosis in human MDA-MB-468 cells assessed as late apoptotic cells at 1 uM incubated for 72 hrs in presence of olaparib by annexin V/propidium iodide staining-based flow cytometry analysis (reference value: 1.34%); type: functional
[15] = system: MDA-MB-468; assay: Synergistic antiproliferative activity against human MDA-MB-468 cells at compound to Olaparib ratio of 1:3; type: functional, cell-based
[16] = system: MDA-MB-468; assay: Antiproliferative activity against human MDA-MB-468 cells assessed as reduction in cell viability incubated for 72 hrs by MTT assay; type: functional, cell-based; conditions: MDA-MB-468, 72 h
[17] = biological target: Poly [ADP-ribose] polymerase 1 (Homo sapiens, UniProt P09874); assay: Inhibition of PARP1 (unknown origin) at 1 uM relative to control
[18] = system: MDA-MB-231; assay: Antiproliferative activity against human MDA-MB-231 cells assessed as reduction in cell viability incubated for 72 hrs by MTT assay; type: functional, cell-based; conditions: MDA-MB-231, 72 h
[19] = biological target: Bromodomain-containing protein 4 (Homo sapiens, UniProt O60885); assay: Inhibition of BRD4 (unknown origin) at 1 uM relative to control

Sequence of Poly [ADP-ribose] polymerase 1 (P09874 whole entry): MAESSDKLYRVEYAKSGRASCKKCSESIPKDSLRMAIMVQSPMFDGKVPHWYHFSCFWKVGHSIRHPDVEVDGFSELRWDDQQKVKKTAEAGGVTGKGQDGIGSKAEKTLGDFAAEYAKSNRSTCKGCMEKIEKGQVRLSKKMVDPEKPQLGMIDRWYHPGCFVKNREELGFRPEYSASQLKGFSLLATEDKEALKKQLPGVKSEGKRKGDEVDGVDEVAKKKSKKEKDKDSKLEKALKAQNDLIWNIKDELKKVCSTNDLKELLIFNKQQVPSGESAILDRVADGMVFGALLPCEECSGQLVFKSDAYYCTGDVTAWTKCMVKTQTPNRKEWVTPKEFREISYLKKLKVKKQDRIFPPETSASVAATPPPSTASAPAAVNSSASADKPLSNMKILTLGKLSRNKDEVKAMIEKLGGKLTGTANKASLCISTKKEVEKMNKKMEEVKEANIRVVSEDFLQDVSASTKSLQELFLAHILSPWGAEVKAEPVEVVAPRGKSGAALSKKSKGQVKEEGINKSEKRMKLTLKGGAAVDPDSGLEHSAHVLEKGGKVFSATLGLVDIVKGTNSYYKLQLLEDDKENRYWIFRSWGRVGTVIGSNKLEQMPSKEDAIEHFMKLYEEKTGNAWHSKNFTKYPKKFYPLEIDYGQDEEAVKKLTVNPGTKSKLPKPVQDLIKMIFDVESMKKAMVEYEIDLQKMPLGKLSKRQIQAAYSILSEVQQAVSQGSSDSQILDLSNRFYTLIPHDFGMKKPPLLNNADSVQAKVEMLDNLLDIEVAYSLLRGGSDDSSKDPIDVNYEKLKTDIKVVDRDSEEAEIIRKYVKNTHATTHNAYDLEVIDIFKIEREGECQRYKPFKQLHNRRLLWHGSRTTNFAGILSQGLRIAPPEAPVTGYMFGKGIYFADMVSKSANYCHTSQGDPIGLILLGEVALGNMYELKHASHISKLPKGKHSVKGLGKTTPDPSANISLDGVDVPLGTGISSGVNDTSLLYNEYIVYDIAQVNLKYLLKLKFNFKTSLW

| Structure (SMILES) | pIC50 [16] | inhibition [17] | pIC50 [18] | inhibition [19] | also measured |
| --- | --- | --- | --- | --- | --- |
| O=C(c1cc(Cc2n[nH]c(=O)c3ccccc23)ccc1F)N1CCN(C(=O)C2CC2)CC1 | – | – | – | – | Activity [1]: Active; Activity [2]: Active |
| Cc1sc2c(c1C)C(c1ccc(Cl)cc1)=NC(CC(=O)OC(C)(C)C)c1nnc(C)n1-2 (stereo unspecified) | – | – | – | – | Activity [3]: 30.72%; Activity [4]: Active; Activity [5]: Active; Activity [6]: 58.9%; Activity [7]: 12.8%; Activity [8]: Active; Activity [9]: Active; Activity [10]: Active; Activity [11]: Active; Activity [12]: 27.9%; Activity [13]: Active; Activity [14]: 7.3%; Activity [15]: Active |
| O=c1[nH]c(-c2ccc(Cc3n[nH]c(=O)c4ccccc34)cc2)nc2ccc(Cl)cc12 | 4.77 | 52.3% | 4.77 | 49.3% | – |
| O=c1[nH]c(-c2cc(F)cc(Cc3n[nH]c(=O)c4ccccc34)c2)nc2ccccc12 | 4.85 | 84.5% | 4.75 | 45.5% | – |
| COc1cc(-c2nc3cccc(Cl)c3c(=O)[nH]2)ccc1Cc1n[nH]c(=O)c2ccccc12 | 4.46 | 33.9% | 4.46 | 43.3% | – |
| O=c1[nH]nc(Cc2ccc(-c3nc4cccc(Cl)c4c(=O)[nH]3)cc2F)c2ccccc12 | 4.67 | 38.5% | 4.66 | 53.4% | – |
| Cc1cc(-c2nc3ccccc3c(=O)[nH]2)ccc1Cc1n[nH]c(=O)c2ccccc12 | 4.55 | 46.3% | 4.44 | 42.1% | – |
| COc1cc(OC)c2c(=O)[nH]c(-c3ccc(Cc4n[nH]c(=O)c5ccccc45)c(OC)c3)nc2c1 | 4.60 | 35.3% | 4.56 | 51% | – |
| O=c1[nH]c(-c2ccc(Cc3n[nH]c(=O)c4ccccc34)cc2)nc2ccccc12 | 4.60 | 63.8% | 4.60 | 33% | – |
| COc1ccc2nc(-c3cccc(Cc4n[nH]c(=O)c5ccccc45)c3)[nH]c(=O)c2c1 | 5.27 | 78.4% | 5.06 | 61.2% | – |
| O=c1[nH]c(-c2cccc(Cc3n[nH]c(=O)c4ccccc34)c2)nc2ccccc12 | 4.79 | 82.4% | 4.67 | 47.2% | – |
